Reference: patent publication US20070021434A1, “NON-NUCLEOSIDE ANTI-HEPACIVIRUS AGENTS AND USES THEREOF” (Migenix Inc., priority 2005, published 2007)

These compounds were tested against HCV RdRp (NS5B) (UniProt P26663).
Sequence of HCV RdRp (NS5B) (P26663 whole entry, looked up): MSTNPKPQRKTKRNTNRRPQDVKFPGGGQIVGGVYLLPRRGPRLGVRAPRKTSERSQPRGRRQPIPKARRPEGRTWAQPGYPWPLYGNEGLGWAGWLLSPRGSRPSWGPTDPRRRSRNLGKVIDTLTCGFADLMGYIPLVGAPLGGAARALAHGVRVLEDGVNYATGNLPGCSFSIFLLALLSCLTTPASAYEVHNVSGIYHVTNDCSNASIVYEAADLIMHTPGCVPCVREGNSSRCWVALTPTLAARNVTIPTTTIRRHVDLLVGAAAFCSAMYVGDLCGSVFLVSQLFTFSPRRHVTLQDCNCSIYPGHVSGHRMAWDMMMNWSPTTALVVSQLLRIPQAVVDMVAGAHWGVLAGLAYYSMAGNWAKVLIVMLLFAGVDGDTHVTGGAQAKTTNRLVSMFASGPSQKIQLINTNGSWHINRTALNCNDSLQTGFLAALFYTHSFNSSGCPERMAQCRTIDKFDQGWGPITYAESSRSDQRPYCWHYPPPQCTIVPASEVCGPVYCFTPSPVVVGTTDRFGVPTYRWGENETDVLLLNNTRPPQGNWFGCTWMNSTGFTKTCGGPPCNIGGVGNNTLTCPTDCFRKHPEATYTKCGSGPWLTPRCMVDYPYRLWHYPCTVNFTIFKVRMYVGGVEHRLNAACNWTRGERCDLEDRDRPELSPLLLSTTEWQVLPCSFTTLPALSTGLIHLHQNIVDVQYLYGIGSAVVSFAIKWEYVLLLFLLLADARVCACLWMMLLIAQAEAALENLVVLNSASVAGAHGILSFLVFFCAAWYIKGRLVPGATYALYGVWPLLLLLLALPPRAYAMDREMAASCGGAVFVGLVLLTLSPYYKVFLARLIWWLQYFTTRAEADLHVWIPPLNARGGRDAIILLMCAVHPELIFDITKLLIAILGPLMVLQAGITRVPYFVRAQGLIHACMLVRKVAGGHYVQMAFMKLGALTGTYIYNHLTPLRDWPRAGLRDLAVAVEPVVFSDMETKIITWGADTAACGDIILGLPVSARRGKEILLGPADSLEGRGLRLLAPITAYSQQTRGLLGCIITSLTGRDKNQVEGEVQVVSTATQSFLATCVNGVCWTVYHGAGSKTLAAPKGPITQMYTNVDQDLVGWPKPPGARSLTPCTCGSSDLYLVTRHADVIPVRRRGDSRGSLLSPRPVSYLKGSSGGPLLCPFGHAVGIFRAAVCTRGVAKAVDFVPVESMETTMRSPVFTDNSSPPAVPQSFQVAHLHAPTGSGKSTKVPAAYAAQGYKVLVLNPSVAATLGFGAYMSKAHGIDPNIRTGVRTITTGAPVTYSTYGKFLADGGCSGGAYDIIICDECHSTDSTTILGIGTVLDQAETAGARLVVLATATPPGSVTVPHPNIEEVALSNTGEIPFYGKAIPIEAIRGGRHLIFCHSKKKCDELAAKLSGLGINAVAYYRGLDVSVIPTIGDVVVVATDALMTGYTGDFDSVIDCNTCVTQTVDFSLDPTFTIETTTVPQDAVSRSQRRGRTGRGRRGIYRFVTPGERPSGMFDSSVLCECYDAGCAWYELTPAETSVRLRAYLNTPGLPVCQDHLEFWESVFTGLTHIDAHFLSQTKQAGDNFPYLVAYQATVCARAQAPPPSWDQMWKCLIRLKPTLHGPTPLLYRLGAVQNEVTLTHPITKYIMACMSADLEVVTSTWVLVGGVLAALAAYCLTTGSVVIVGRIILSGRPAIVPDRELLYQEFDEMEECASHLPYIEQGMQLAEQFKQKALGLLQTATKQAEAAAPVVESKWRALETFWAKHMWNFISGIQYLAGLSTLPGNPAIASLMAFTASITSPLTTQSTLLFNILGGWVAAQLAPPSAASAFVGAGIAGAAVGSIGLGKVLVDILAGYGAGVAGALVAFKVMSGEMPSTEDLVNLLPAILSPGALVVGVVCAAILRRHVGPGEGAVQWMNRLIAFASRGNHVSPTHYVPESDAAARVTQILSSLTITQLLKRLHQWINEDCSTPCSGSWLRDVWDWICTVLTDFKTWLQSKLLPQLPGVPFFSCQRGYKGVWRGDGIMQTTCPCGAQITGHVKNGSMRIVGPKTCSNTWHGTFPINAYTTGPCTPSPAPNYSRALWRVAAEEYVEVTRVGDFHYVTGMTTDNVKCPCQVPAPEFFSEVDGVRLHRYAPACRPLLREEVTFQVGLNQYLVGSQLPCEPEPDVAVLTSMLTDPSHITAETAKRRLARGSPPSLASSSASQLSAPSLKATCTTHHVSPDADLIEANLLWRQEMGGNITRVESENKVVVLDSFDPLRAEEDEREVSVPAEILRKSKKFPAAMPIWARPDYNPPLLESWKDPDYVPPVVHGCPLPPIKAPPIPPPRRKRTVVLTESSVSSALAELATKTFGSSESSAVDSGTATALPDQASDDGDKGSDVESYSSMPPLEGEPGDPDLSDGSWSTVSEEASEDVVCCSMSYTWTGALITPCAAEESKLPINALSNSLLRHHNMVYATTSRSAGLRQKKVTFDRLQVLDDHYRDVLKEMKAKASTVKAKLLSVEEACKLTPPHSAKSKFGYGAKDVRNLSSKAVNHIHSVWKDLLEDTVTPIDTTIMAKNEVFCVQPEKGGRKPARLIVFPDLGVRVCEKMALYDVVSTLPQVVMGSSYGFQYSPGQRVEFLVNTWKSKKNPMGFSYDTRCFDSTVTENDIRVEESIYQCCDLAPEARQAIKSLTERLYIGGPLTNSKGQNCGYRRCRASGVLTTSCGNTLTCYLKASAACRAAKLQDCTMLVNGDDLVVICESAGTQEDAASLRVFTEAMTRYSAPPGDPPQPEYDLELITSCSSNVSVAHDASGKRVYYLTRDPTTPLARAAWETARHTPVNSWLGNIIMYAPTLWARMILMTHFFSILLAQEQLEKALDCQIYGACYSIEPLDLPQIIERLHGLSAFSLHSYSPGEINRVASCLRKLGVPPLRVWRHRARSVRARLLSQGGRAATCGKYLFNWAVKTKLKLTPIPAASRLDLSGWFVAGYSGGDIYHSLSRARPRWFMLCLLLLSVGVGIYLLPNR
Type: biochemical, hepatitis C virus
`Cc1ccc(NC(=O)[C@H](CCCCN)NS(=O)(=O)c2cccc3ccccc23)cc1` [Compound 68, (S)-6-AMINO-2-(NAPHTHALENE-1-SULFONYLAMINO)-HEXANOIC ACID P-TOLYLAMIDE] was tested, and the IC50 was > 50 µM. For `Cc1ccc(NC(=O)C(CCCCN)NC(=O)NC(C)c2cccc3ccccc23)cc1` [Compound 96, (R,S)-6-AMINO-2-[3-(1-NAPHTHALEN-1-YL-ETHYL)-UREIDO]-HEXANOIC ACID P-TOLYLAMIDE], the IC50 was > 50 µM. `NCCCC[C@H](NC(=O)c1ccccc1)C(=O)Nc1ccc(CN(C(=O)c2ccco2)C2CCCCC2)cc1` [Compound 27, (S)-FURAN-2-CARBOXYLIC ACID [4-(6-AMINO-2-BENZOYLAMINO-HEXANOYLAMINO)-BENZYL]-CYCLOHEXYL-AMIDE] was tested, and the IC50 was > 50 µM. `O=C(N[C@@H](Cc1ccccc1)C(=O)Nc1ccc(CN(C(=O)c2ccco2)C2CCCCC2)cc1)OCC1c2ccccc2-c2ccccc21` [Compound 29, (S)-[1-(4-{[CYCLOHEXYL-(FURAN-2-CARBONYL)-AMINO]-METHYL}-PHENYL CARBAMOYL)-2-PHENYL-ETHYL]-CARBAMIC ACID 9H-FLUOREN-9-YLMETHYL ESTER] was tested, and the IC50 was > 50 µM. In the case of `Cc1cc2cc(NC(=O)[C@H](CCCCNC(=O)CN)NC(=O)OCC3c4ccccc4-c4ccccc43)ccc2[nH]1` [Compound 233, (S)-[5-(2-AMINO-ACETYLAMINO)-1-(2-METHYL-1H-INDOL-5-YLCARBAMOYL)-PENTYL]-CARBAMIC ACID 9H-FLUOREN-9-YLMETHYL ESTER], the IC50 is reported as < 10 µM. `Cc1ccc(NC(=O)C(CCCCN)NC(=O)C(N)Cc2cccc3ccccc23)cc1` [Compound 60, (S,S)-6-AMINO-2-(2-AMINO-3-NAPHTHALEN-1-YL-PROPIONYLAMINO)-HEXANOIC ACID P-TOLYLAMIDE] was tested, and the IC50 was > 50 µM. Compound `CNCC(=O)NCCCC(NC(=O)OCC1c2ccccc2-c2ccccc21)C(=O)Nc1ccc(C)cc1` [Compound 223, (S)-[4-(2-METHYLAMINO-ACETYLAMINO)-1-P-TOLYLCARBAMOYL-BUTYL]-CARBAMIC ACID 9H-FLUOREN-9-YLMETHYL ESTER] has an IC50 of 10 to 50 µM. With `CNC(Cc1c[nH]c2ccccc12)C(=O)NC(CCCCN)C(=O)Nc1ccc(C)cc1` [Compound 90, (S)-6-AMINO-2-[3-(1H-INDOL-3-YL)-2-(S)-METHYLAMINO-PROPIONYLAMINO]-HEXANOIC ACID P-TOLYLAMIDE] the IC50 was > 50 µM. For `C[C@H](N)C(=O)Nc1ccc(CN(C(=O)c2ccco2)C2CCCCC2)cc1` [Compound 12, (S)-FURAN-2-CARBOXYLIC ACID [4-(2-AMINO-PROPIONYLAMINO)-BENZYL]-CYCLOHEXYL-AMIDE], the IC50 was > 50 µM. With `Cc1ccc(NC(=O)C(CCCNC(=N)N(C)C)NC(=O)OCC2c3ccccc3-c3ccccc32)cc1` [Compound 111, (S)-[4-(3,3-DIMETHYL-GUANIDINO)-1-P-TOLYLCARBAMOYL-BUTYL]-CARBAMIC ACID 9H-FLUOREN-9-YLMETHYL ESTER] the IC50 was > 50 µM. `NCCCC[C@H](NC(=O)OCC1c2ccccc2-c2ccccc21)C(=O)Nc1ccc(CN(C(=O)c2ccco2)C2CCCCC2)cc1` [Compound 6, (S)-[5-AMINO-1-(4-{[CYCLOHEXYL-(FURAN-2-CARBONYL)-AMINO]-METHYL}-PHENYLCARBAMOYL)-PENTYL]-CARBAMIC ACID 9H-FLUOREN-9-YL METHYL ESTER] was tested, and the IC50 was < 10 µM. `Cc1ccc(NC(=O)[C@H](CCCCN)NS(=O)(=O)c2ccc(Cl)cc2Cl)cc1` [Compound 393, (S)-6-AMINO-2-(2,4-DICHLORO-BENZENESULFONYLAMINO)-HEXANOIC ACID P-TOLYLAMIDE] was tested, and the IC50 was > 50 µM. For `Cc1ccc(NC(=O)C(CCCCN)NC(=O)Nc2ccc(C=Cc3ccccc3)cc2)cc1` [Compound 236, (S)-6-AMINO-2-[3-(4-STYRYL-PHENYL)-UREIDO]-HEXANOIC ACID P-TOLYLAMIDE], the IC50 was < 10 µM. With `Cc1ccc(NC(=O)[C@H](CCCCN)NC(=O)Nc2ccc(NCc3ccc(F)cc3)cc2)cc1` [Compound 225, (S)-6-AMINO-2-{3-[4-(4-FLUORO-BENZYLAMINO)-PHENYL]-UREIDO}-HEXANOIC ACID P-TOLYLAMIDE] the IC50 was > 50 µM. With `Cc1ccc(NC(=O)[C@H](CCCCN)NC(=O)Nc2ccc(OCc3ccccc3)cc2)cc1C` [Compound 254, (S)-6-AMINO-2-[3-(4-BENZYLOXY-PHENYL)-UREIDO]-HEXANOIC ACID (3,4-DIMETHYL-PHENYL)-AMIDE] the IC50 was 10 to 50 µM. For `Cc1ccc(NC(=O)[C@H](CCCCN)NS(=O)(=O)c2ccsc2)cc1` [Compound 399, (S)-6-AMINO-2-(THIOPHENE-3-SULFONYLAMINO)-HEXANOIC ACID P-TOLYLAMIDE], the IC50 was > 50 µM. For `Cc1ccc(NC(=O)[C@H](CCCCN)NS(=O)(=O)c2ccc3ccccc3c2)cc1` [Compound 69, (S)-6-AMINO-2-(NAPHTHALENE-2-SULFONYLAMINO)-HEXANOIC ACID P-TOLYLAMIDE], the IC50 was > 50 µM. `NCCCCCCNC(=O)C(NC(=O)Nc1ccc(OCc2ccccc2)cc1)c1ccccc1` [Compound 319, (S)-NR-(6-AMINO-HEXYL)-2-[3-(4-BENZYLOXY-PHENYL)-UREIDO]-2-PHENYL-ACETAMIDE] was tested, and the IC50 was < 10 µM. `N[C@@H](CCNC(=O)OCC1c2ccccc2-c2ccccc21)C(=O)Nc1ccc(CN(C(=O)c2ccco2)C2CCCCC2)cc1` [Compound 14, (S)-[3-AMINO-3-(4-{[CYCLOHEXYL-(FURAN-2-CARBONYL)-AMINO]-METHYL}-PHENYLCARBAMOYL)-PROPYL]-CARBAMIC ACID 9H-FLUOREN-9-YLMETHYL ESTER] showed an IC50 of 10 to 50 µM. `Cc1ccc(NC(=O)[C@H](CCCCN)NC(=O)COc2ccc(Oc3ccccc3)cc2)cc1` [Compound 333, (S)-6-AMINO-2-[2-(4-PHENOXY-PHENOXY)-ACETYLAMINO]-HEXANOIC ACID P-TOLYLAMIDE] was tested, and the IC50 was > 50 µM. In the case of `Cc1ccc(NC(=O)C(CCCCN)NS(=O)(=O)c2cc(S(=O)(=O)c3ccccc3)cs2)cc1` [Compound 388, (S)-6-AMINO-2-(4-BENZENESULFONYL-THIOPHENE-2-SULFONYLAMINO)-HEXANOIC ACID P-TOLYLAMIDE], the IC50 is reported as > 50 µM. In the case of `Cc1ccc(NC(=O)C(CCCCN)NC(=O)Cc2ccc3ccccc3c2)cc1` [Compound 48, (S)-6-AMINO-2-(2-NAPHTHALEN-2-YL-ACETYLAMINO)-HEXANOIC ACID P-TOLYLAMIDE], the IC50 is reported as > 50 µM. `NCCCC[C@H](NC(=O)Cn1cnc2c(NC(=O)c3ccccc3)ncnc21)C(=O)Nc1ccc(CN(C(=O)c2ccco2)C2CCCCC2)cc1` [Compound 46, (S)-FURAN-2-CARBOXYLIC ACID (4-{6-AMINO-2-[2-(6-BENZOYLAMINO-PURIN-9-YL)-ACETYLAMINO]-HEXANOYLAMINO}-BENZYL)-CYCLOHEXYL-AMIDE] was tested, and the IC50 was 10 to 50 µM. For `Cc1ccc(NC(=O)C2CCCN2C(=O)OCC2c3ccccc3-c3ccccc32)cc1` [Compound 85, (S)-2-P-TOLYLCARBAMOYL-PYRROLIDINE-1-CARBOXYLIC ACID 9H-FLUOREN-9-YLMETHYL ESTER], the IC50 was > 50 µM. For `Cc1ccc(NC(=O)C(N)CNC(=O)OCC2c3ccccc3-c3ccccc32)cc1` [Compound 84, (R)-(2-AMINO-2-P-TOLYLCARBAMOYL-ETHYL)-CARBAMIC ACID 9H-FLUOREN-9-YLMETHYL ESTER], the IC50 was > 50 µM. `Cc1ccc(NC(=O)C(CCCCN)NC(=O)Nc2ccc(Cc3ccccc3)cc2)cc1` [Compound 74, (S)-6-AMINO-2-[3-(4-BENZYL-PHENYL)-UREIDO]-HEXANOIC ACID P-TOLYLAMIDE] was tested, and the IC50 was 10 to 50 µM. `Cc1ccc(NC(=O)C(CCO)NC(=O)OCC2c3ccccc3-c3ccccc32)cc1` [Compound 374, (S)-(3-HYDROXY-1-P-TOLYLCARBAMOYL-PROPYL)-CARBAMIC ACID 9H-FLUOREN-9-YLMETHYL ESTER] was tested, and the IC50 was > 50 µM.
